# Assay results from US10738028B2, “Spiro three-membered ring, spiro five-membered ring peptide deformylase inhibitor and use thereof in antibacteria and anti-tumor” (priority 2016, dated 2020).
# Read-outs that look alike come from different tables or passages of the source.
# Assays:
# Assay type in all cases: cell-based
# [1] = tested on: Enterococcus faecalis (EFA); assay: MIC, two-fold agar dilution (CLSI), clinical isolates
# Outline: (§1)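 MIC values come from two-fold agar dilution run per CLSI antimicrobial susceptibility testing procedure.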
# [2] = tested on: Enterococcus faecium (EFM); assay: as above
# Outline: as §1
# [3] = tested on: Escherichia coli (including ESBLs, non-ESBLs); assay: as above
# Outline: as §1
# [4] = tested on: Moraxella catarrhalis (BCA); assay: as above
# Outline: as §1
# [5] = tested on: Streptococcus pneoumoniae (SPN); assay: as above
# Outline: as §1
# [6] = tested on: methicillin-resistant Staphylococcus aureus (MRSA); assay: as above
# Outline: as §1
# [7] = tested on: methicillin-resistant Staphylococcus epidermidis (MRSE); assay: as above
# Outline: as §1
# [8] = tested on: methicillin-sensitive Staphylococcus aureus (MSSA); assay: as above
# Outline: as §1
# [9] = tested on: methicillin-sensitive Staphylococcus epidermidis (MSSE); assay: as above
# Outline: as §1
# [10] = tested on: HCT-116 colorectal cancer cell line; assay: CCK-8 proliferation inhibition; conditions: Homo sapiens, HCT-116, 72 h, concentration of 30 μM, 72 hours, CCK-8
# Outline: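 Cells seeded at 2000 cells/well, cultured overnight at 37 °C, 5% CO2, then exposed to compound (DMSO; control 1‰ DMSO) for 72 h in McCoy's 5A with 10% newborn bovine serum. Viability read with 1:10 diluted CCK-8.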
# [11] = tested on: A549 lung cancer cell line; assay: CCK-8 proliferation inhibition; conditions: Homo sapiens, A549, 72 h, concentration of 30 μM
# From the text: (§2) 2. The present invention adopts the CCK-8 method to determine the proliferation inhibition effect of the spiro three-membered ring, spiro five-membered ring peptide deformylase inhibitor as described in Examples 1-80 against colorectal cancer cells, lung cancer cells, gastric cancer cells, liver cancer cells, and the like. […] The compound having the best activity synthesized in Example 64 was further tested for its inhibitory activity against other tumor cells including T cell leukemia, acute myeloid leukemia, cervical cancer, breast cancer, prostate cancer and osteosarcoma, and the like (see Table 7).
# (§3) (1) HCT-116 colorectal cancer cell line, A549 lung cancer cell line, MGC-803 gastric cancer cell line, BEL-7402 liver cancer cell line, Jurkat T cell leukemia cell line, HL60 acute myeloid leukemia cell line, Hela cervical cancer cell line, MCF-7 breast cancer cell line, PC3 prostate cancer cell line and SAOS-2 osteosarcoma cell line were made into single cell suspension, 180 μL of which was inoculated into 96-well culture plate, which was cultured overnight in CO2 incubator (37° C., 5% CO2, 95% air).
# (§4) (2) Each of the spiro three-membered ring, spiro five membered ring peptide deformylase inhibitors was dissolved in DMSO, and was further formulated into drug solution with required different final concentration using corresponding cell culture medium. The drug solutions were added to the above cells respectively (20 μL/well), with the control group added with 1‰ DMSO, and cultured in a CO2 incubator for 72 hours.
# (§5) (3) After incubation for 72 hours, the culture solution was decanted, and 100 μL of 1:10 diluted CCK-8 solution was added.
# (§6) Wherein, in step (1), the concentration of the single cell suspension was 2000 cells/well.
# (§7) Wherein, in step (2), HCT-116 cells were cultured in McCoy's 5A medium (containing 10% newborn bovine serum, 1% double antibody); A549 and PC3 cells were cultured in F12 medium (containing 10% newborn bovine serum, 1% double antibody); MGC-803, BEL-7402, SAOS-2, Jurkat and HL60 cells were cultured in 1640 medium (containing 10% newborn bovine serum, 1% double antibody); and MCF-7 and Hela cells were cultured in DMEM high glucose medium (containing 10% newborn bovine serum, 1% double antibody).
# [12] = tested on: BEL-7402 liver cancer cell line; assay: CCK-8 proliferation inhibition; conditions: concentration of 30 μM
# From the text: as §2, §3, §4, §5, §6, §7
# [13] = tested on: MGC-803 gastric cancer cell line; assay: CCK-8 proliferation inhibition; conditions: Homo sapiens, MGC-803, 72 h, concentration of 30 μM
# From the text: as §2, §3, §4, §5, §6, §7
smiles,measurement,setting,value
"O=CN(O)C[C@@H](CC1CCCC1)C(=O)N1CC2(CC2)C[C@H]1C(=O)Nc1ccc(N2CCOCC2)cc1 [Example 25, (S)-5-((R)-3-cyclopentyl-2-((N-hydroxyformamido)methyl)propionyl)-N-(4-morpholinophenyl)-5-spiro[2.4]heptane-6-carboxamide]",MIC (anti-bacterial activity),[1]; strain EFA 15-1,2 µg/mL
same,MIC (anti-bacterial activity),[1]; strain EFA 15-2,2 µg/mL
same,MIC (anti-bacterial activity),[1]; strain EFA 15-3,0.5 µg/mL
same,MIC (anti-bacterial activity),[1]; strain EFA 15-4,2 µg/mL
same,MIC (anti-bacterial activity),[1]; strain EFA 15-5,2 µg/mL
same,MIC (anti-bacterial activity),[1]; strain EFA 15-6,2 µg/mL
same,MIC (anti-bacterial activity),[1]; strain EFA 15-9,2 µg/mL
same,MIC (anti-bacterial activity),[2]; strain EFM 15-1,1 µg/mL
same,MIC (anti-bacterial activity),[2]; strain EFM 15-2,0.5 µg/mL
same,MIC (anti-bacterial activity),[2]; strain EFM 15-3,0.5 µg/mL
same,MIC (anti-bacterial activity),[2]; strain EFM 15-4,0.25 µg/mL
same,MIC (anti-bacterial activity),[2]; strain EFM 15-5,0.5 µg/mL
same,MIC (anti-bacterial activity),[2]; strain EFM 15-6,1 µg/mL
same,MIC (anti-bacterial activity),[3]; strain ECO+ 15-1,32 µg/mL
same,MIC (anti-bacterial activity),[3]; strain ECO+ 15-2,> 32 µg/mL
same,MIC (anti-bacterial activity),[3]; strain ECO+ 15-3,> 32 µg/mL
same,MIC (anti-bacterial activity),[3]; strain ECO+ 15-4,> 32 µg/mL
same,MIC (anti-bacterial activity),[3]; strain ECO− 15-1,> 32 µg/mL
same,MIC (anti-bacterial activity),[3]; strain ECO− 15-2,> 32 µg/mL
same,MIC (anti-bacterial activity),[3]; strain ECO− 15-3,> 32 µg/mL
same,MIC (anti-bacterial activity),[3]; strain ECO− 15-4,> 32 µg/mL
same,MIC (anti-bacterial activity),[4]; strain BCA 14-1,0.5 µg/mL
same,MIC (anti-bacterial activity),[4]; strain BCA 14-4,0.25 µg/mL
same,MIC (anti-bacterial activity),[4]; strain BCA 14-5,0.5 µg/mL
same,MIC (anti-bacterial activity),[4]; strain BCA 14-6,1 µg/mL
same,MIC (anti-bacterial activity),[4]; strain BCA 14-7,0.25 µg/mL
same,MIC (anti-bacterial activity),[4]; strain BCA 14-8,0.25 µg/mL
same,MIC (anti-bacterial activity),[4]; strain BCA 14-10,0.25 µg/mL
same,MIC (anti-bacterial activity),[5]; strain SPN 16-2,0.5 µg/mL
same,MIC (anti-bacterial activity),[5]; strain SPN 16-4,2 µg/mL
same,MIC (anti-bacterial activity),[6]; strain MRSA 15-1,0.25 µg/mL
same,MIC (anti-bacterial activity),[6]; strain MRSA 15-2,0.25 µg/mL
same,MIC (anti-bacterial activity),[6]; strain MRSA 15-3,0.25 µg/mL
same,MIC (anti-bacterial activity),[6]; strain MRSA 15-4,0.25 µg/mL
same,MIC (anti-bacterial activity),[7]; strain MRSE 15-1,0.06 µg/mL
same,MIC (anti-bacterial activity),[7]; strain MRSE 15-2,0.25 µg/mL
same,MIC (anti-bacterial activity),[7]; strain MRSE 15-3,0.25 µg/mL
same,MIC (anti-bacterial activity),[7]; strain MRSE 15-7,0.25 µg/mL
same,MIC (anti-bacterial activity),[8]; strain MSSA 15-3,0.25 µg/mL
same,MIC (anti-bacterial activity),[8]; strain MSSA 15-4,0.25 µg/mL
same,MIC (anti-bacterial activity),[8]; strain MSSA 15-5,0.25 µg/mL
same,MIC (anti-bacterial activity),[8]; strain MSSA 15-6,0.25 µg/mL
same,MIC (anti-bacterial activity),[9]; strain MSSE 15-3,0.25 µg/mL
same,MIC (anti-bacterial activity),[9]; strain MSSE 15-4,0.25 µg/mL
same,MIC (anti-bacterial activity),[9]; strain MSSE 15-5,0.25 µg/mL
same,MIC (anti-bacterial activity),[9]; strain MSSE 15-6,0.25 µg/mL
same,inhibition at 30 µM,"[10]; Table 5, read-out: Inhibition of proliferation, Colorectal cancer HCT116",≥ 30%
same,inhibition at 30 µM,[10]; read-out: HCT116 inhibition rate/%,35%
same,inhibition at 30 µM,[11],30%
same,inhibition at 30 µM,"[12]; Homo sapiens, Bel-7402, 72 h",> 50%
same,"Inhibition of proliferation, Liver cancer BEL-7402","[12]; 72 hours, 30 µM",65%
same,inhibition at 30 µM,[13],27%
